Laboratory results as given in US20150175603A1, “TRICYCLIC COMPOUNDS AS KAT II INHIBITORS” (PFIZER INC., priority 2012, published 2015).
Structures can show the parent of a compound that is named as a salt.

molecular target: human KAT II (hKAT II) enzyme (Homo sapiens, UniProt Q8N5Z0); assay: KAT II Inhibition Spectra Assay; type: biochemical; conditions: single determination unless marked a (geometric mean of 2-4 determinations); decrease in OD370, L-kynurenine substrate, 37° C. for 15-20 h; hydrochloride salt; read-out: KATII IC50
Procedure: KAT II Inhibition Spectra Assay
Formation of kynurenic acid (KYNA) is indirectly assessed by a decrease in light absorbance at 370 nm (OD370) as the L-kynurenine (KYN) substrate is converted by the human KAT II (hKAT II) enzyme into KYNA. An inhibitor would therefore inhibit the decrease in OD370.
The protocol was performed by placing the following reagents into a Costar 384 well black plate (30 μL total assay volume/well): • 10 μL of 3× concentrated compound; • 10 μL of 3× concentrated substrate mix (BGG (Sigma G-5009); 3 mM L-Kynurenine in 150 mM Tris Acetate (Sigma K3750); 3 mM α-ketoglutaric acid in 150 mM Tris Acetate (Sigma K2010); and 210 μM pyridoxal 5-phosphate (PLP) in 150 mM Tris Acetate (Sigma 9255)); and • 10 μL of 3× concentrated enzyme (15 nM enzyme in 150 mM Tris Acetate with 0.3% bovine serum).
Plates were sealed and incubated at 37° C. for 15-20 h before reading OD370 on a SpectraMax Plus plate reader. IC50s were generated by comparing the efficacy of compounds across a concentration range to inhibit a reduction in the OD370 value relative to assay wells with DMSO added in place of concentrated compound. Biological data for the Examples may be found in Table 2.

Sequence of human KAT II (hKAT II) enzyme (Q8N5Z0 30-425): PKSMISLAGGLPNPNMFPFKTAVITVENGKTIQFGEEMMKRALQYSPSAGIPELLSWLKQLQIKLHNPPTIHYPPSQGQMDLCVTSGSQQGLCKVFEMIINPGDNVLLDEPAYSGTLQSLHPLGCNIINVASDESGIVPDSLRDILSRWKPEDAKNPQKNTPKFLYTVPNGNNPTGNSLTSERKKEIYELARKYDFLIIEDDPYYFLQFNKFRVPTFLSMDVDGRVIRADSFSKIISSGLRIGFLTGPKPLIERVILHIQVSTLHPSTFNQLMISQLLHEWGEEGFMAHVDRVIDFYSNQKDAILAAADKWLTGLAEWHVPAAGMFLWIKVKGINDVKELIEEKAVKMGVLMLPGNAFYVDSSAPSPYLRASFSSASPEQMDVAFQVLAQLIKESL

Compound | IC50 [µM]
COc1cccc(Oc2ccc3c(c2)CC(N)c2n[nH]c(=O)n2-3)c1 (single isomer, unassigned; ent-1) [Example 1, 4-Amino-7-(3-methoxyphenoxy)-4,5-dihydro[1,2,4]triazolo[4,3-a]quinolin-1(2H)-one ENT-1, hydrochloride salt] | 0.188

same assay, conditions: single determination unless marked a (geometric mean of 2-4 determinations); decrease in OD370, L-kynurenine substrate, 37° C. for 15-20 h; read-out: KATII IC50

Compound | IC50 [µM]
NC1Cc2cc(-c3ccccc3OC(F)(F)F)ccc2-n2c1n[nH]c2=O (stereo not drawn) [Example 37, 4—amino—7—[2—(trifluoromethoxy)phenyl]—4,5—dihydro[1,2,4]triazolo[4,3—a]quinolin—1(2H)—one, trifluoroacetate salt] | 0.527
Cn1ncc2c(-c3ccc4c(c3)CC(N)c3n[nH]c(=O)n3-4)cccc21 (stereo not drawn) [Example 15, 4—amino—7(1—methyl—1H—indazol—4—yl)—4,5—dihydro[1,2,4]triazolo[4,3—a]quinolin—1(2H)—one, trifluoroacetate salt] | 0.262
NC1Cc2cc(Oc3ccccc3)cnc2-n2cnnc21 (single isomer, unassigned) [Example 8, 3—phenoxy—5,6—dihydro[1,2,4]triazolo[4,3—a][1,8]naphthyridin—6—amine ENT—1] | 0.286
CCOc1ccc(Cl)cc1-c1ccc2c(c1)CC(N)c1n[nH]c(=O)n1-2 (stereo not drawn) [Example 39, 4—amino—7—(5—chloro—2—ethoxyphenyl)—4,5—dihydro[1,2,4]triazolo[4,3—a]quinolin—1(2H)—one, trifluoroacetate salt] | 0.968
COc1cccc(Oc2ccc3c(c2)C[C@H](N)c2noc(=O)n2-3)c1 [Example 6, (4S)-4-Amino-7-(3-methoxyphenoxy)-4,5-dihydro[1,2,4]oxadiazolo[4,3-a]quinolin-1-one, hydrochloride salt] | 0.39
COc1cccc(Oc2ccc3c(c2)CC(N)c2nncn2-3)c1 (single isomer, unassigned; ent-1) [Example 4, 7-(3-Methoxyphenoxy)-4,5-dihydro[1,2,4]triazolo[4,3-a]quinolin-4-amine, ENT-1] | 0.107
NC1Cc2cc(Oc3cccc(C(F)(F)F)c3)ccc2-n2c1n[nH]c2=O (stereo not drawn) [Example 3, 4-amino-7-[3-(trifluoromethyl)phenoxy]-4,5-dihydro[1,2,4]triazolo[4,3-a]quinolin-1(2H)-one, hydrochloride salt] | 0.0914
CCOc1cc(-c2ccc3c(c2)CC(N)c2n[nH]c(=O)n2-3)ccn1 (stereo not drawn) [Example 17, 4—amino—7—(2—ethoxypyridin—4—yl)—4,5—dihydro[1,2,4]triazolo[4,3—a]quinolin—1(2H)—one, trifluoroacetate salt] | 1.83
Cn1nccc1-c1ccc2c(c1)CC(N)c1n[nH]c(=O)n1-2 (stereo not drawn) [Example 36, 4—amino—7—(1—methyl—1H—pyrazol—5—yl)—4,5—dihydro[1,2,4]triazolo[4,3—a]quinolin—1(2H)—one, trifluoroacetate salt] | 0.632
NC1Cc2cc(Oc3cccc(C(F)(F)F)c3)ccc2-n2cnnc21 (stereo not drawn) [Example 10, 7—[3—(trifluoromethyl)phenoxy]—4,5—dihydro[1,2,4]triazolo[4,3—a]quinolin—4—amine, hydrochloride salt] | 0.185
COc1cc2c(cc1Cc1ccccc1)CC(N)c1nncn1-2 (stereo not drawn) [Example 46, 7—benzyl—8—methoxy—4,5—dihydro[1,2,4]triazolo[4,3—a]quinolin—4—amine, hydrochloride salt] | 1.13
NC1Cc2cc(-c3cc(C(F)(F)F)ccc3Cl)ccc2-n2c1n[nH]c2=O (stereo not drawn) [Example 21, 4—amino—7—[2—chloro—5—(trifluoromethyl)phenyl]—4,5—dihydro[1,2,4]triazolo[4,3—a]quinolin—1(2H)—one, trifluoroacetate salt] | 1.25
COc1cccc(Oc2ccc3c(c2)CC(N)c2nncn2-3)c1 (single isomer, unassigned; ent-2) [Example 5, 7-(3-Methoxyphenoxy)-4,5-dihydro[1,2,4]triazolo[4,3-a]quinolin-4-amine, ENT-2] | 1.24
NC1Cc2cc(-c3cccc4ncccc34)ccc2-n2c1n[nH]c2=O (stereo not drawn) [Example 16, 4—amino—7—(quinolin—5—yl)—4,5—dihydro[1,2,4]triazolo[4,3—a]quinolin—1(2H)—one, trifluoroacetate salt] | 0.664
NC1Cc2cc(Oc3ccccc3)ccc2-n2c1n[nH]c2=O (stereo not drawn) [Example 48, 4—amino—7—phenoxy—4,5—dihydro[1,2,4]triazolo[4,3—a]quinolin—1(2H)—one, hydrochloride salt] | 0.0837
COc1cccc(Oc2ccc3c(c2)CC(N)c2n[nH]c(=O)n2-3)c1 (single isomer, unassigned; ent-2) [Example C9, 4-amino-7-(3-methoxyphenoxy)-4,5-dihydro[1,2,4]triazolo[4,3-a]quinolin-1(2H)-one ENT-2, hydrochloride salt] | 3.72
NC1Cc2cc(Oc3ccccc3)cnc2-n2cnnc21 (single isomer, unassigned) [Example 9, 3—phenoxy—5,6—dihydro[1,2,4]triazolo[4,3—a][1,8]naphthyridin—6—amine ENT—2] | 1.31
NC1Cc2cc(Oc3ccccc3)ncc2-n2cnnc21 (stereo not drawn) [Example 7, 7-Phenoxy-4,5-dihydro[1,2,4]triazolo[4,3-a][1,7]naphthyridin-4-amine, hydrochloride salt] | 0.413
NC1Cc2cc(Cc3ccccc3)ccc2-n2c1n[nH]c2=O (stereo not drawn) [Example 44, 4—amino—7—benzyl—4,5—dihydro[1,2,4]triazolo[4,3—a]quinolin—1(2H)—one, hydrochloride salt] | 0.426
COc1ncccc1-c1ccc2c(c1)CC(N)c1n[nH]c(=O)n1-2 (stereo not drawn) [Example 33, 4—amino—7—(2—methoxypyridin—3—yl)—4,5—dihydro[1,2,4]triazolo[4,3—a]quinolin—1(2H)—one, trifluoroacetate salt] | 0.197

Second part, the compound after the results:

IC50 [µM] | Compound
0.361 | NC1Cc2cc(-c3ccccc3F)ccc2-n2c1n[nH]c2=O (stereo not drawn) [Example 29, 4—amino—7—(2—fluorophenyl)—4,5—dihydro[1,2,4]triazolo[4,3—a]quinolin—1(2H)—one, trifluoroacetate salt]
1.38 | NC1Cc2cc(-c3ccc(Cl)cc3Cl)ccc2-n2c1n[nH]c2=O (stereo not drawn) [Example 35, 4—amino—7—(2,4—dichlorophenyl)—4,5—dihydro[1,2,4]triazolo[4,3—a]quinolin—1(2H)—one, trifluoroacetate salt]
0.302 | COc1ccc(F)cc1-c1ccc2c(c1)CC(N)c1n[nH]c(=O)n1-2 (stereo not drawn) [Example 32, 4—amino—7—(5—fluoro—2—methoxyphenyl)—4,5—dihydro[1,2,4]triazolo[4,3—a]quinolin—1(2H)—one, trifluoroacetate salt]
0.546 | NC1Cc2cc(-c3cccnc3)ccc2-n2c1n[nH]c2=O (stereo not drawn) [Example 20, 4—amino—7—(pyridin—3—yl)—4,5—dihydro[1,2,4]triazolo[4,3—a]quinolin—1(2H)—one, trifluoroacetate salt]
0.506 | NC1Cc2cc(-c3ccccc3Cl)ccc2-n2c1n[nH]c2=O (stereo not drawn) [Example 11, 4—amino—7—(2-chlorophenyl)—4,5—dihydro[1,2,4]triazolo[4,3—a]quinolin—1(2H)—one, trifluoroacetate salt]
0.849 | NC1Cc2cc(-c3ccc(F)nc3)ccc2-n2c1n[nH]c2=O (stereo not drawn) [Example 42, 4—amino—7—(6—fluoropyridin—3—yl)—4,5—dihydro[1,2,4]triazolo[4,3—a]quinolin—1(2H)—one, trifluoroacetate salt]
1.9 | COc1ccc(-c2ccc3c(c2)CC(N)c2n[nH]c(=O)n2-3)cn1 (stereo not drawn) [Example 22, 4—amino—7—(6—methoxypyridin—3—yl)—4,5—dihydro[1,2,4]triazolo[4,3—a]quinolin—1(2M—one, trifluoroacetate salt]
1.08 | NC1Cc2cc(-c3ccc(F)cc3)ccc2-n2c1n[nH]c2=O (stereo not drawn) [Example 24, 4—amino—7—(4—fluorophenyl)—4,5—dihydro[1,2,4]triazolo[4,3—a]quinolin—1(2H)—one. trifluoroacetate salt]
0.263 | Cc1cc(-c2ccc3c(c2)CC(N)c2n[nH]c(=O)n2-3)cnc1F (stereo not drawn) [Example 43, 4—amino—7—(6—fluoro—5—methylpyridin—3—yl)—4,5—dihydro[1,2,4]triazolo[4,3—a]quinolin—1(2H)—one, trifluoroacetate salt]
0.32 | NC1Cc2cc(-c3ccccc3C(F)(F)F)ccc2-n2c1n[nH]c2=O (stereo not drawn) [Example 40, 4—amino—7—[2—(trifluoromethyl)phenyl]—4,5—dihydro[1,2,4]triazolo[4,3—a]quinolin—1(2H)—one, trifluoroacetate salt]
0.415 | NC1Cc2cc(-c3cccc(F)c3)ccc2-n2c1n[nH]c2=O (stereo not drawn) [Example 34, 4—amino—7—(3—fluorophenyl)—4,5—dihydro[1,2,4]triazolo[4,3—a]quinolin—1(2H)—one, trifluoroacetate salt]
0.751 | COc1ccccc1-c1ccc2c(c1)CC(N)c1n[nH]c(=O)n1-2 (stereo not drawn) [Example 19, 4—amino—7—(2—methoxyphenyl)—4,5—dihydro[1,2,4]triazolo[4,3—a]quinolin—1(2H)—one, trifluoroacetate salt]
